The results in this text go back to patent US12297203B2, “Pyrrolopyrimidine ITK inhibitors” (ACLARIS THERAPEUTICS, INC., priority 2018, dated 2025).

A word on the IC50: it is the point on the concentration scale where inhibition reaches its midpoint.

Some results are limits rather than exact numbers.

The target of assay [1] is ITK (Homo sapiens (Human), UniProt Q08881). Nature of the assay: ITK inhibitor binding potency (LanthaScreen competitive binding assay). The note with it: read-out: ITK Inh. IC50. The source says:
The ability of candidate compounds to interact with ITK is quantitated by a competitive binding assay using the LanthaScreen technology developed by Life Technologies. This assay is based on the binding of a proprietary, Alexa Fluor® 647-labeled, ATP-competitive kinase inhibitor (kinase tracer-236) to the ITK expression construct in the presence of a Europium-conjugated antibody, resulting in a FRET (fluorescence resonance energy transfer) signal. Displacement of the kinase tracer by compound results in a lower emission ratio upon excitation of the Europium chelate. Candidate compounds are designed as potential irreversible inhibitors of ITK, capable of ligating to an active site cysteine residue resulting in time dependent covalent binding. The time dependent nature of irreversible inhibition is investigated by performing the binding assay with and without a pre-incubation of compound and ITK. […] The inhibitory potency of candidate compounds is measured in 20 mM HEPES pH 7.5, 10 mM MgCl2, 0.01% BSA, 0.0005% Tween-20, and 2% DMSO in the presence of 10 nM ITK, 2 nM Eu-anti-GST antibody, and 50 nM kinase tracer-236 using a 384-well plate format. Background signal is defined in the absence of ITK and uninhibited signal is defined in the presence of vehicle (2% DMSO) alone. Compounds were evaluated in an 11 point dose-response ranging from 20 uM to 0.34 nM. The binding assays are performed under two preincubation conditions to evaluate time dependence of inhibition. For the pre-incubation assay, ITK and Eu-anti-GST antibody are pre-incubated with compound or vehicle for two hours prior to the addition of kinase tracer. The non-preincubated assay is run under conditions where ITK and Eu-anti-GST antibody are added to a mixture of compound and kinase tracer. IC50 values of compounds are determined using a 4 parameter logistical fit of emission ratio as a function of the concentration of compound.
Background: In TR-FRET formats the signal depends on donor and acceptor labels being close together.

Assay [2] deals with JAK1/3 phosphorylation of its substrate, STAT5, at Y694. As to the kind of experiment: JAK1/3 target modulation assay (IL-2 stimulated STAT5 Y694 phosphorylation in PBMC). It is filed as cell-based. The note with it: Homo sapiens, PBMC, Primary human peripheral blood mononuclear cells, IL-2 25 ng/mL; read-out: IL2-STAT5 Inh. IC50. As to the method: Target modulation was based upon the ability of a compound to inhibit JAK1/3 phosphorylation of its substrate, STAT5, at Y694. Primary human peripheral blood mononuclear cells were plated in V-bottom 96 well plates at 200,000 cells/well in 120 μL medium (RPMI-1640 with 10% fetal bovine serum, 10 mM HEPES buffer, 12.2 mM 2-mercaptoethanol, and supplemented with glutamine/penicillin/streptomycin). Compounds were added as 15 μL of 10× working stock solutions in medium with 1% DMSO (or medium with 1% DMSO for controls) and placed in a 37° C. incubator with gentle shaking for 1 hour. Stimulation was carried out using recombinant human IL-2 (R&D Systems #202-IL-050) to activate JAK1/3. IL-2 stock solution was diluted in media to 250 ng/mL and was added rapidly to all compound containing and stimulation only wells at 15 μL/well (final concentration=25 ng/mL). Wells designated ‘unstimulated’ received 15 μL of media only. The plate was placed back in a 37° C. incubator with gentle shaking for 5 minutes. After stimulation, the plates were immediately sealed with a plate seal, and cells pelleted at 400× g for 5 minutes. Media was removed using a multichannel aspirator, and 75 μL of cold Tris lysis buffer (MSD #R60TX-3) plus 1× Protease Inhibitor Solution (MSD #R70AA-1), 1× Phosphatase Inhibitor I (MSD #R70AA-1), and 1× Phosphatase Inhibitor II (MSD #R70AA-1) was added per well. Cells were incubated at 4° C. with gentle shaking for at least 30 minutes to allow for complete lysis. The plates were removed from 4° C., and 25 μL of lysate from each well was added to the corresponding well on the MSD plate. Samples were analyzed by either an MSD multiplex kit for Phospho-STAT5a,b/Total-STAT5a,b (MSD #K15163D) or an MSD single-plex kit for Phospho-STAT5a,b (MSD #K150IGD). The protocols for the respective kits were followed, and the plates were read on the MSD SECTOR S 600.

Assay [3] concerns ITK phosphorylation of its substrate, PLCγ1, at Y783. Nature of the assay: ITK target modulation assay (PLCγ1 Y783 phosphorylation, anti-CD3 stimulated Jurkat T cells). In kind it is cell-based. The conditions noted are these: Homo sapiens, Jurkat, anti-CD3 Dynabeads stimulation, read-out: PLC-γ Inh. IC50. As to the method: Target modulation was based upon the ability of a compound to inhibit ITK phosphorylation of its substrate, PLCγ1, at Y783. Human Jurkat T cells (ATCC TIB-152) were plated in V-bottom 96 well plates at 400,000 cells/well in 80 μL medium (RPMI1640 with 10% heat inactivated serum and 55 μM 2-mercaptoethanol and supplemented with glutamine/penicillin/streptomycin). Compounds were added as 10 μL of 10× working stock solutions in medium with 1% DMSO (or medium with 1% DMSO for controls) and placed in a 37° C. incubator with gentle shaking for 1 hour. Stimulation was carried out using anti-CD3 Dynabeads (Invitrogen catalog #1151D) to activate the T cell receptor and mimic antigen presenting cells. Beads were washed and resuspended in medium at 1.84×10^8 beads/ml. Beads were added rapidly to all compound containing and stimulation only wells at 10 μL/well (bead:cell=2:1) with gentle mixing of the bead source between each addition. Wells designated ‘unstimulated’ received 10 μL of media only. The plate was immediately sealed with a plate seal and cells pelleted at 400× g for 4 minutes. Media was removed using a multichannel aspirator, 25 μL of cold hypotonic lysis buffer (VWR M334-100 ml) plus 1×HALT Protease Inhibitor Cocktail (ThermoFisher #78437), 1× Phosphatase Inhibitor Cocktail 2 (Sigma Aldrich #P5726), 1× Phosphatase Inhibitor Cocktail 3 (Sigma Aldrich #P0044) and 2 mM PMSF was added per well. Cells were incubated on ice for 30 minutes to swell the cells then lysed by pipetting 20 times using a multichannel pipet. The plates were then resealed and centrifuged for 5 minutes at 400× g to pellet the cellular debris. Two μL of the soluble component of each sample was spotted onto nitrocellulose and allowed to dry for 30 minutes. Nitrocellulose was wet in 1× Tris Buffer Saline (20 mM Tris pH7.5, 150 mM NaCl) then blocked in LiCOR Odyssey Blocking Buffer (TBS) (LiCOR #927-50000) for 1 hour at room temperature with rocking. Following blocking, nitrocellulose was incubated in LiCOR Odyssey Blocking Buffer (TBS) plus 0.2% Tween20 plus anti-phospho-PLCγ1 (Y783) antibody (CST #2821S) at 1:1000 and anti-PLCγ1 (Abcam #41433) at 1:5000 with gentle rocking overnight at 4° C. Nitrocellulose was then washed four times for 5 minutes each with TBS plus 0.1% Tween20 (TBST) then incubated in LiCOR Odyssey Blocking Buffer (TBS) plus 0.2% Tween20 plus secondary antibodies IRDye 800CW (LiCOR 926-32211) and IRDye 680RD (LiCOR 926-68070) both at 1:15,000 with gentle rocking at room temperature in the dark for 1 hour. Nitrocellulose was then washed four times for 5 minutes each with TBST at room temperature in the dark. A final rinse with TBS was done prior to imaging and quantifying using the LiCOR Odyssey Imager and software respectively.

Assay [4] concerns the target JAK3 (Homo sapiens (Human), UniProt P52333). Nature of the assay: JAK3 enzyme activity assay (Caliper mobility shift). The note with it: ATP at Km level; read-out: JAK3 Inh. IC50. In kind it is biochemical. The source says: The ability of candidate compounds to interact with JAK3 is quantitated by a mobility shift assay using an LC3000 instrument developed by Caliper Life Sciences. This assay is based on mobility shift electrophoresis, in which fluorescently labelled product and fluorescently labelled substrate peaks are separated and detected independently. JAK3 product/substrate separation is obtained using the following instrument settings: Pressure=−1.4 psi, Downstream voltage=−2550V and Upstream voltage=−800V. The inhibitory potency of candidate compounds of JAK3 is measured in 20 mM HEPES pH 7.5, 10 mM MgCl2, 0.01% BSA, 0.0005% Tween-20, and 2% DMSO in the presence of 2.5 nM JAK3 (Life Technologies Catalog #PV3855), […] (Anaspec Catalog #AS-64106) and […] (Km level) using a 384-well plate format. Background signal is defined in the absence of enzyme and uninhibited signal is defined in the presence of vehicle (2% DMSO) alone. Compounds were evaluated in an 11 point dose-response ranging from […] to 0.34 nM. IC50 values of compounds are determined using a 4 parameter logistical fit of emission ratio as a function of the concentration of compound.

ITK, sequence (Q08881 whole entry): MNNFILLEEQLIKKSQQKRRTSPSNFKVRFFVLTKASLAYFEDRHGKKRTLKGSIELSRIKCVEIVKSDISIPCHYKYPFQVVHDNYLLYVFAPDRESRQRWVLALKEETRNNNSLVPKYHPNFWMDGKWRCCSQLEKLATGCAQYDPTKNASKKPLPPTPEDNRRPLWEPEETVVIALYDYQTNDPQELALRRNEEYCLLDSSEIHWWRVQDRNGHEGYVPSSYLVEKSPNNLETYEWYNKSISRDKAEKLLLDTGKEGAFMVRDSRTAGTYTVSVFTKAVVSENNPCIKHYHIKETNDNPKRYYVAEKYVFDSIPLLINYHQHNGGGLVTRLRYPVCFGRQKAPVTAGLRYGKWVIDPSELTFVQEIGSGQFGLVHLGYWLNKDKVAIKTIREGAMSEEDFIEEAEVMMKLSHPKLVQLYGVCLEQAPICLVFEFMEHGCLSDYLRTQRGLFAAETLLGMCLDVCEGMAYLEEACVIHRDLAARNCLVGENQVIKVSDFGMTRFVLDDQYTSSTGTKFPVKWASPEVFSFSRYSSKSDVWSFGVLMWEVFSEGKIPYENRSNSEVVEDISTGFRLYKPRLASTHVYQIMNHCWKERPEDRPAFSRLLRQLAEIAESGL
JAK3, sequence (P52333 781-1124): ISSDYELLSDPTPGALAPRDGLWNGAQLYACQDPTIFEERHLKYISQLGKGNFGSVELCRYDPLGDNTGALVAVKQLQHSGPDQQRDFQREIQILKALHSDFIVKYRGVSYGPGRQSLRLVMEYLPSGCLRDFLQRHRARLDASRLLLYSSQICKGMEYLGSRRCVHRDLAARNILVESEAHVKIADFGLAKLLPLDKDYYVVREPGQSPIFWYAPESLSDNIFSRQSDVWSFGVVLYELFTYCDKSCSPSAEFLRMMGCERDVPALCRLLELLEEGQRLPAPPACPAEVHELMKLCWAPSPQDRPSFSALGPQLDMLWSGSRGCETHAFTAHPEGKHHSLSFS

`C=CC(=O)N1C[C@H](Nc2ncnc3[nH]cc([C@H]4CC4(F)F)c23)CC[C@@H]1CC` (single isomer, unassigned) [Example 67]: the IC50 in assay [1] was more than 100 nM; in assay [2] it was more than 1000 nM; in assay [3], more than 1000 nM; in assay [4], more than 100 nM.
Turning to `C=CC(=O)N1C[C@H](Nc2ncnc3[nH]cc([C@H]4CC4(F)F)c23)CC[C@@H]1C` (single isomer, unassigned) [Example 49], the IC50 was not above 10 nM in assay [1], 100 to 1000 nM in assay [2], 100 to 1000 nM in assay [3] and not above 10 nM in assay [4].
As for `C=CC(=O)N1C[C@H](Nc2ccnc3[nH]cc([C@@H]4C[C@H]4COC)c23)CC[C@@H]1C` (single isomer, unassigned) [Example 77], the IC50 in assay [1] is not above 10 nM; in assay [2], 100 to 1000 nM; in assay [3] it was 100 to 1000 nM; in assay [4], not above 10 nM.
Turning to `C=CC(=O)N1C[C@H](Nc2ncnc3[nH]cc(CC4CC4)c23)CC[C@@H]1C` [Example 24, 1-((2S,5R)-5-((5-(cyclopropylmethyl)-7H-pyrrolo[2,3-d]pyrimidin-4-yl)amino)-2-methylpiperidin-1-yl)prop-2-en-1-one], the IC50 is not above 10 nM in assay [1], 100 to 1000 nM in assay [2], not above 100 nM in assay [3] and not above 10 nM in assay [4].
Consider `C=CC(=O)N1C[C@H](Nc2ncnc3[nH]cc(C(=O)C4CCC4)c23)CC[C@@H]1C` [Example 17, 1-((2S,5R)-5-((5-(cyclobutanecarbonyl)-7H-pyrrolo[2,3-d]pyrimidin-4-yl)amino)-2-methylpiperidin-1-yl)prop-2-en-1-one], for which the IC50 in assay [1] is not above 10 nM; in assay [2] it was 100 to 1000 nM; in assay [3], not above 100 nM; in assay [4] it was not above 10 nM.
Turning to `C=CC(=O)N1C[C@H](Nc2ncnc3[nH]cc(C(=O)OCCC)c23)CC[C@@H]1C` [Example 3, propyl 4-(((3R,6S)-1-acryloyl-6-methylpiperidin-3-yl)amino)-7H-pyrrolo[2,3-d]pyrimidine-5-carboxylate], the IC50 in assay [1] was not above 10 nM; in assay [2], 100 to 1000 nM; in assay [3], not above 100 nM; in assay [4], not above 10 nM.
On to `C=CC(=O)N1CCC(Nc2cnc3[nH]cc(C(=O)OCC)c3c2)CC1` [Example 96, ethyl 5-((1-acryloylpiperidin-4-yl)amino)-1H-pyrrolo[2,3-b]pyridine-3-carboxylate], for which the IC50 was more than 100 nM in assay [1], 100 to 1000 nM in assay [2], more than 1000 nM in assay [3] and not above 10 nM in assay [4].
For `C=CC(=O)N1CCC[C@@H](Nc2ncnc3[nH]cc(C4CCCC4)c23)C1` [Example 28, (R)-1-(3-((5-cyclopentyl-7H-pyrrolo[2,3-d]pyrimidin-4-yl)amino)piperidin-1-yl)prop-2-en-1-one], the IC50 was not above 10 nM in assay [1], 100 to 1000 nM in assay [2], not above 100 nM in assay [3] and not above 10 nM in assay [4].
For `C=CC(=O)N1CCC[C@@H](Nc2ncnc3[nH]cc(C(=O)[C@H]4CCOC4)c23)C1` (single isomer, unassigned) [Example 11], the IC50 was 10 to 100 nM in assay [1], more than 1000 nM in assay [2], more than 1000 nM in assay [3] and more than 100 nM in assay [4].
For the compound `C=CC(=O)N1C[C@H](Nc2ncnc3[nH]cc(C4CC4COC)c23)CC[C@@H]1C` (mixture of isomers) [Example 44, 1-((2S,5R)-5-((5-(2-(methoxymethyl)cyclopropyl)-7H-pyrrolo[2,3-d]pyrimidin-4-yl)amino)-2-methylpiperidin-1-yl)prop-2-en-1-one], the IC50 in assay [1] was not above 10 nM; in assay [2] it was 100 to 1000 nM; in assay [3], not above 100 nM; in assay [4] it was not above 10 nM.
Regarding `C=CC(=O)N1CCC[C@@H](Nc2ccnc3[nH]cc(C(=O)C4CC4)c23)C1` [Example 9, (R)-1-(3-((3-(cyclopropanecarbonyl)-1H-pyrrolo[2,3-b]pyridin-4-yl)amino)piperidin-1-yl)prop-2-en-1-one], the IC50 was not above 10 nM in assay [1], 100 to 1000 nM in assay [2], 100 to 1000 nM in assay [3] and not above 10 nM in assay [4].
For `C/C=C/C(=O)N1C[C@H](Nc2ncnc3[nH]cc([C@@H]4CC4(F)F)c23)CC[C@@H]1C` (single isomer, unassigned) [Example 58], the IC50 in assay [1] is more than 100 nM; in assay [2] it was more than 1000 nM; in assay [3] it was 100 to 1000 nM; in assay [4], more than 100 nM.
